Reference: patent US7541020B2, “Aminoalkyl glucosaminide phosphate compounds and their use as adjuvants and immunoeffectors” (priority 1997, dated 2009)
Where “and” joins values, the source holds several entries; their conditions need not be identical. Equal values may be shown once. Read-outs that look alike come from different tables or passages of the source.

Columns and labels:
[1] = test system: influenza A/HK/68; conditions: mouse, in vivo
[2] = test system: hepatitis B surface antigen (HBsAg); assay: Serum anti-HBsAg antibody titers after intranasal HBsAg + AGP-AF (ELISA); assay type: in vivo, BALB/c mice; conditions: for Anti HBsAg Titer^−1 IgG1 / Anti HBsAg Titer^−1 IgG2a: K = 10^3
[3] = test system: hepatitis B surface antigen (HBsAg); assay: Vaginal wash anti-HBsAg antibody after intranasal HBsAg + AGP-AF; assay type: in vivo, BALB/c mice; conditions: 10 days after the booster immunization; intranasal HBsAg + 10 μg AGP-AF
Description: Vaginal samples were collected 10 days after the booster immunization and assayed for anti-HBsAg antibody.

[4] = test system: Hepatitis B surface antigen; assay: Randomized controlled clinical study of AgB/RC-210-04 versus AgB: seroprotection, seroconversion, anti-HBsAg titers; assay type: in vivo, human; conditions: healthy adults; RC-210-04 added to AgB
[5] = test system: influenza A/HK/68; conditions: mouse, in vivo; remark: listed apart in the source
[6] = test system: tetanus toxoid; conditions: mouse, in vivo
[7] = test system: hepatitis B surface antigen (HBsAg); assay: Anti-HBsAg antibody titer with AGP-SE (ELISA plates coated with HBsAg or p72 peptide); conditions: sera day 28 post 2°, 25 μg AGP-SE; for Anti-HBsAg Titer^−1 HBsAg IgG1 / Anti-HBsAg Titer^−1 HBsAg IgG2a: ELISA plates coated with HBsAg; for Anti-HBsAg Titer^−1 p72-Peptide IgG1 / Anti-HBsAg Titer^−1 p72-Peptide IgG2a: ELISA plates coated with p72 peptide
[8] = test system: ovalbumin; assay: Stimulation of antiovalbumin antibody production; assay type: in vivo, BDF1 female mice; conditions: 50 μg AGP + 50 μg ovalbumin; second immunization day 21; bled 14 days after second injection
Experimental: BDF1 female mice (8 per group) were immunized with 0.2 ml of emulsions containing 50 μg of the AGPs +50 μg of ovalbumin. A second immunization was administered 21 days post primary. Each mouse was bled 14 days after the second injection.

[9] = test system: influenza A/HK/68; assay type: in vivo, BALB/c mice; conditions: mouse, in vivo
[10] = test system: influenza A/HK/68; design: species or system ICR mice; conditions: mouse, in vivo
[11] = test system: hepatitis B surface antigen (HBsAg); assay: Cytotoxic T-lymphocyte response to HBsAg with AGP in stable emulsion (AGP-SE); conditions: s.c. 2.0 μg HBsAg + 25 μg AGP/SE
[12] = Fever response in rabbits (pyrogenicity); assay type: in vivo; conditions: 10 ug/kg; cumulative rise ≥1.5 degree in three rabbits is considered pyrogenic
Experimental: The AGP compounds were also evaluated for their tendency to induce a fever response in rabbits. Each compound was formulated in 10% (v/v) ethanol/water solution at 100 mg/ml, then diluted with D5W to the desired concentration. The material was injected at 3 ml/kg body weight into 3 rabbits. The rise in core temperature of the rabbits was recorded.

[13] = test system: tetanus toxoid; conditions: mouse, in vivo, sc
[14] = test system: E.G7 (OVA) cells; conditions: s.c. 25 μg OVA in AGP preparation, spleen cells 21 days later
[15] = test system: hepatitis B surface antigen (HBsAg); conditions: for % Cytotoxicity (d16, post 2°): HBsAg + 10 μg AGP-AF intranasally; for % Cytotoxicity (d8, post 3°): intranasal HBsAg + 10 μg AGP-AF
[16] = day 22 post 2°, HBsAg + 10 μg AGP-AF intranasally
[17] = serum, day 21 post 3°, intranasal HBsAg + 10 μg AGP-AF

2-[(R)-3-Hexanoyloxytetradecanoylamino]ethyl2-Deoxy-4-O-phosphono-3-O-[(R)-3-hexanoyloxytetradecanoyl]-2-[(R)-3-hexanoyloxytetradecanoylamino]-α-D-glucopyranoside Triethylammonium Salt [B31]
Anti-influenza serum titers IgG [1]: 3200
Anti-influenza serum titers IgG1 [1]: 1600
Anti-influenza serum titers IgG2a [1]: 400
Anti-influenza serum titers IgG2b [1]: 1600
Protection [1]: 70

2-[(R)-3-Tetradecanoyloxytetradecanoylamino]ethyl 2-Deoxy-4-O-phosphono-3-O-[(R)-3-tetradecanoyoxytetradecanoyl]-2-[(R)-3-tetradecanoyoxytetradecanoylamino]-β-D-glucopyranoside Triethylammonium Salt [B19]
Anti HBsAg Titer^−1 IgA [2, 16]: 1,600
Anti HBsAg Titer^−1 IgG1 [2, 16]: 500K
Anti HBsAg Titer^−1 IgG2a [2, 16]: 64K
Anti HBsAg Titer^−1 IgG1 [2, 17]: 2000K
Anti HBsAg Titer^−1 IgG2a [2, 17]: 500K
Anti HBsAg Titer^−1 IgA [2, 17]: 12,800
Vaginal Wash Anti-HBsAg Titer^−1 IgA [3]: 400
Vaginal Wash Anti-HBsAg Titer^−1 IgG [3]: <50
antibody responses to Hepatitis B surface antigen (in words) [4]: faster and greater antibody responses
Percent Survival [5]: 50%
Titer−1 IgG1 [5]: 100
Titer−1 IgG2a [5]: 800
Titer−1 IgG2b [5]: 6400
Titer−1 Total IgG [5]: 12,800
Anti-Tetanus Toxoid Titer^−1 Fecal Extract IgA [6]: 3200 and 6400
Anti-Tetanus Toxoid Titer^−1 Fecal Extract IgG [6]: 25
Anti-Tetanus Toxoid Titer^−1 Serum Pools IgG1 [6]: 2M and 4M
Anti-Tetanus Toxoid Titer^−1 Vaginal Wash IgA [6]: 1600 and 3200
Anti-Tetanus Toxoid Titer^−1 Vaginal Wash IgG [6]: 200 and 400
Anti-HBsAg Titer^−1 HBsAg IgG1 [7]: 1024K
Anti-HBsAg Titer^−1 HBsAg IgG2a [7]: 1024K
Anti-HBsAg Titer^−1 p72-Peptide IgG1 [7]: 64K
Anti-HBsAg Titer^−1 p72-Peptide IgG2a [7]: 128K

N-[(R)-3-Decanoyloxytetradecanoyl]-O-[2-deoxy-4-O-phosphono-2-[(R)-3-decanoyloxytetradecanoylamino]-3-O-[(R)-3-decanoyloxytetradecanoyl]-β-D-glucopyranosyl]-L-serinamide Triethylammonium Salt [B25]
Anti-ovalbumin IgG1 T/C [8]: 5.2
Anti-ovalbumin IgG1 Titer [8]: 8500
Anti-ovalbumin IgG2a T/C [8]: 0.5
Anti-ovalbumin IgG2a Titer [8]: 163
Anti-ovalbumin IgG2b T/C [8]: 5.0
Anti-ovalbumin IgG2b Titer [8]: 1188
Anti-ovalbumin IgM T/C [8]: 0.8
Anti-ovalbumin IgM Titer [8]: 150
Anti-ovalbumin Total Ig T/C [8]: 1.9
Anti-ovalbumin Total Ig Titer [8]: 438
Anti-influenza Titer^−1 IgG1 [9]: 1600
Anti-influenza Titer^−1 IgG2a [9]: 6400
Anti-influenza Titer^−1 IgG2b [9]: 1600
Anti-influenza Titer^−1 Total IgG [9]: 3200
Percent Survival [9]: 100%
Anti HBsAg Titer^−1 IgA [2, 16]: 3,200
Anti HBsAg Titer^−1 IgG1 [2, 16]: 256K#
Anti HBsAg Titer^−1 IgG2a [2, 16]: 500K
Anti HBsAg Titer^−1 IgG1 [2, 17]: 1000K#
Anti HBsAg Titer^−1 IgG2a [2, 17]: 1000K
Anti HBsAg Titer^−1 IgA [2, 17]: 25,600
Vaginal Wash Anti-HBsAg Titer^−1 IgA [3]: 800
Vaginal Wash Anti-HBsAg Titer^−1 IgG [3]: 100
Percent Protection [10]: 100%
Serum Titers IgG1 [10]: 102,400
Serum Titers IgG2a [10]: 819,200
Serum Titers IgG2b [10]: ≧819,200
Serum Titers Total IgG [10]: ≧819,200
Vaginal Wash Samples IgA Secondary [10]: 1280
Vaginal Wash Samples IgA Tertiary [10]: 1280
Vaginal Wash Samples IgG Secondary [10]: 640
Vaginal Wash Samples IgG Tertiary [10]: 2560
% Cytotoxicity ([11]; d16, post 2°, E:T 6.25:1): 13%
% Cytotoxicity ([11]; d16, post 2°, E:T 12.5:1): 20%
% Cytotoxicity ([11]; d16, post 2°, E:T 25:1): 28%
% Cytotoxicity ([11]; d16, post 2°, E:T 50:1): 49%
% Cytotoxicity ([11]; d17, post 1°, E:T 6.25:1): 5%
% Cytotoxicity ([11]; d17, post 1°, E:T 12.5:1): 9%
% Cytotoxicity ([11]; d17, post 1°, E:T 25:1): 12%
% Cytotoxicity ([11]; d17, post 1°, E:T 50:1): 27%
PYROGENICITY Total Rise ° C., 3 rabbits [12]: 4.2 °C
Anti-tetanus toxoid IgG1 T/C [13]: 2.68
Anti-tetanus toxoid IgG1 Titer [13]: 576,000
Anti-tetanus toxoid IgG2a T/C [13]: 1.67
Anti-tetanus toxoid IgG2a Titer [13]: 8,500
Anti-tetanus toxoid IgG2b T/C [13]: 3.28
Anti-tetanus toxoid IgG2b Titer [13]: 94,400
Anti-tetanus toxoid IgM T/C [13]: 2.0
Anti-tetanus toxoid IgM Titer [13]: 3,200
Anti-tetanus toxoid Total IgG T/C [13]: 8.93
Anti-tetanus toxoid Total IgG Titer [13]: 57,600
% Cytotoxicity ([14]; E:T 12.5:1): 43%
% Cytotoxicity ([14]; E:T 25:1): 55%
% Cytotoxicity ([14]; E:T 50:1): 65%
Anti-Tetanus Toxoid Titer^−1 Fecal Extract IgA [6]: 3200 and 6400
Anti-Tetanus Toxoid Titer^−1 Vaginal Wash IgA [6]: 6400
% Cytotoxicity (d16, post 2°) ([15]; E/T 6.25:1): 9%
% Cytotoxicity (d8, post 3°) ([15]; E/T 6.25:1): 8%
% Cytotoxicity (d16, post 2°) ([15]; E/T 12.5:1): 13%
% Cytotoxicity (d8, post 3°) ([15]; E/T 12.5:1): 13%
% Cytotoxicity (d16, post 2°) ([15]; E/T 25:1): 20%
% Cytotoxicity (d8, post 3°) ([15]; E/T 25:1): 19%
% Cytotoxicity (d16, post 2°) ([15]; E/T 50:1): 36%
% Cytotoxicity (d8, post 3°) ([15]; E/T 50:1): 30%
Anti-HBsAg Titer^−1 HBsAg IgG1 [7]: 2048K*
Anti-HBsAg Titer^−1 HBsAg IgG2a [7]: 2048K
Anti-HBsAg Titer^−1 p72-Peptide IgG1 [7]: 128K
Anti-HBsAg Titer^−1 p72-Peptide IgG2a [7]: 64K
